In ChEMBL document CHEMBL4118098, “Discovery of DS28120313 as a potent orally active hepcidin production inhibitor: Design and optimization of novel 4,6-disubstituted indazole derivatives” (Bioorg Med Chem Lett, 2017) one finds inhibition data, which are given here for three compounds.

What is called inhibition is the change of the read-out against control, counted positive when it falls.

Assay [1] deals with Protein kinase C beta type (Homo sapiens) (UniProt P05771). As to the kind of experiment: Inhibition of PKC-beta2 (unknown origin) at 0.164 uM relative to control.
For another assay, the species on record is Homo sapiens. Briefly: Inhibition of PKA (unknown origin) at 0.164 uM relative to control.
In assay [2] the target is Casein kinase I isoform gamma-1 (Homo sapiens) (UniProt Q9HCP0). Briefly: Inhibition of CK1-gamma1 (unknown origin) at 0.164 uM relative to control.
Assay [3] concerns the target Fibroblast growth factor receptor 4 (Homo sapiens) (UniProt P22455). Briefly: Inhibition of FGFR4 (unknown origin) at 0.164 uM relative to control.
For assay [4], the system named is Epidermal growth factor receptor (Homo sapiens), P00533 [L858R,T790M]. As to the kind of experiment: Inhibition of EGFR T790M/L858R double mutant (unknown origin) at 0.164 uM relative to control.
The target in assay [5] is MAP/microtubule affinity-regulating kinase 4 (Homo sapiens) (UniProt Q96L34). Briefly: Inhibition of MARK4 (unknown origin) at 0.164 uM relative to control.
The target in assay [6] is Ephrin type-A receptor 8 (Homo sapiens) (UniProt P29322). As to the kind of experiment: Inhibition of EPHA8 (unknown origin) at 0.164 uM relative to control.
Assay [7] has as its target Tyrosine-protein kinase Lyn (Homo sapiens) (UniProt P07948). As to the kind of experiment: Inhibition of LYN (unknown origin) at 0.164 uM relative to control.
The target of assay [8] is Serine/threonine-protein kinase D2 (Homo sapiens) (UniProt Q9BZL6). As to the kind of experiment: Inhibition of PKD2 (unknown origin) at 0.164 uM relative to control.
Assay [9] addresses BDNF/NT-3 growth factors receptor (Homo sapiens) (UniProt Q16620). Briefly: Inhibition of NTRK2 (unknown origin) at 0.164 uM relative to control.
Assay [10] concerns the target Vascular endothelial growth factor receptor 1 (Homo sapiens) (UniProt P17948). Briefly: Inhibition of FLT1 (unknown origin) at 0.164 uM relative to control.
In assay [11] the target is Casein kinase I isoform alpha (Homo sapiens) (UniProt P48729). Briefly: Inhibition of CSNK1A1 (unknown origin) at 0.164 uM relative to control.
Assay [12] has as its target Tyrosine-protein kinase receptor UFO (Homo sapiens) (UniProt P30530). Briefly: Inhibition of AXL (unknown origin) at 0.164 uM relative to control.
The target of assay [13] is Homeodomain-interacting protein kinase 3 (Homo sapiens) (UniProt Q9H422). Briefly: Inhibition of HIPK3 (unknown origin) at 0.164 uM relative to control.
The target in assay [14] is MAP kinase-interacting serine/threonine-protein kinase 2 (Homo sapiens) (UniProt Q9HBH9). As to the kind of experiment: Inhibition of MNK2 (unknown origin) at 0.45 uM relative to control.
Assay [15] has as its target Calcium/calmodulin-dependent protein kinase type IV (Homo sapiens) (UniProt Q16566). As to the kind of experiment: Inhibition of CAMK4 (unknown origin) at 0.45 uM relative to control.
The target of assay [16] is Serine/threonine-protein kinase pim-2 (Homo sapiens) (UniProt Q9P1W9). As to the kind of experiment: Inhibition of PIM2 (unknown origin) at 0.45 uM relative to control.
In assay [17] the target is Receptor tyrosine-protein kinase erbB-4 (Homo sapiens) (UniProt Q15303). As to the kind of experiment: Inhibition of HER4 (unknown origin) at 0.45 uM relative to control.
Assay [18] addresses T1, Serine/threonine-protein kinase D1 (Homo sapiens) (UniProt Q15139).
T1 sequence (whole entry): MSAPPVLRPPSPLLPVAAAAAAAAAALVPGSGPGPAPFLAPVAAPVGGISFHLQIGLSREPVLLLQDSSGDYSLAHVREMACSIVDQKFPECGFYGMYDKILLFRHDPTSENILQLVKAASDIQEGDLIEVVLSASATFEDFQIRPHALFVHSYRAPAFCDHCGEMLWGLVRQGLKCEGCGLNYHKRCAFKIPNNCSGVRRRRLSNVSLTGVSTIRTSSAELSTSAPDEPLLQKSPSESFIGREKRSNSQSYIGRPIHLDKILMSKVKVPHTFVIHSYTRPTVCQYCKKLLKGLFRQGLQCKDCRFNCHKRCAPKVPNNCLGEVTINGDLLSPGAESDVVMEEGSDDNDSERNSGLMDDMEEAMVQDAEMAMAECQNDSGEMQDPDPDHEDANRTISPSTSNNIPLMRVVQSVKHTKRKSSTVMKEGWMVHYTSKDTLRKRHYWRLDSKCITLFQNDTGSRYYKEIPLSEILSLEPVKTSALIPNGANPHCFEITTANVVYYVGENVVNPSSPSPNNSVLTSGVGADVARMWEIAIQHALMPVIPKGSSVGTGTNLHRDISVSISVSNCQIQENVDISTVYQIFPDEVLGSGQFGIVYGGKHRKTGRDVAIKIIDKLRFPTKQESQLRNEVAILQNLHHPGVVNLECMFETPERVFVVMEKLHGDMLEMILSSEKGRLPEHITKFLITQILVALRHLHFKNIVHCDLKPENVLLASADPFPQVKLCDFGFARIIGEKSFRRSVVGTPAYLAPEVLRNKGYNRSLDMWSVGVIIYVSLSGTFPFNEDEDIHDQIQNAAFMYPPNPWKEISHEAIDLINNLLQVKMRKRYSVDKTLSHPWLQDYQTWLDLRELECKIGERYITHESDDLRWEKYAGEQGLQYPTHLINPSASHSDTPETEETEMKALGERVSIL
Briefly: Inhibition of PKD1 (unknown origin) at 0.45 uM relative to control.

For assay [19], the target named is Casein kinase I isoform gamma-3 (Homo sapiens) (UniProt Q9Y6M4). Briefly: Inhibition of CK1-gamma3 (unknown origin) at 0.45 uM relative to control.
Assay [20] concerns the target Calcium/calmodulin-dependent protein kinase type II subunit alpha (Homo sapiens) (UniProt Q9UQM7). As to the kind of experiment: Inhibition of CaMK2a (unknown origin) at 0.19 uM relative to control.
Assay [21] addresses Homeodomain-interacting protein kinase 4 (Homo sapiens) (UniProt Q8NE63). Briefly: Inhibition of HIPK4 (unknown origin) at 0.19 uM relative to control.
Assay [22] addresses Mitogen-activated protein kinase 14 (Homo sapiens) (UniProt Q16539). As to the kind of experiment: Inhibition of p38a (unknown origin) at 0.19 uM relative to control.
The target in assay [23] is Proto-oncogene tyrosine-protein kinase ROS (Homo sapiens) (UniProt P08922). As to the kind of experiment: Inhibition of ROS (unknown origin) at 0.19 uM relative to control.
The target in assay [24] is Cyclin-dependent kinase 1/cyclin B1 (Homo sapiens) (UniProt P06493+P14635). Briefly: Inhibition of CDK1/Cyclin B1 (unknown origin) at 0.19 uM relative to control. It is filed as protein-complex assay.
Assay [25] deals with RAF proto-oncogene serine/threonine-protein kinase (Homo sapiens) (UniProt P04049). Briefly: Inhibition of c-Raf (unknown origin) at 0.19 uM relative to control.
The target in assay [26] is RAC-alpha serine/threonine-protein kinase (Homo sapiens) (UniProt P31749). As to the kind of experiment: Inhibition of AKT1 (unknown origin) at 0.19 uM relative to control.

In the case of `COC(=O)Nc1cc(-c2c(C3CC3)n[nH]c2C)cc2[nH]ncc12`, the inhibition in assay [1] was 5.7%; in the assay filed under Homo sapiens it was 5.7%; in [2], -2.7%; in assay [3] it was 1.3%; in [4] it was 1%; in assay [5] it was 7.3%. The inhibition in [6] was -1.7%; in assay [7], 10%; in [8] it was 9.3%; in assay [9], 4%; in assay [10] it was 1.3%; in assay [11] it was 5%. The inhibition came out at 4% in assay [12] and 1% in assay [13].

With `Cc1n[nH]c(C)c1-c1ccc2c(NC(=O)c3ccc(N4CCN(C)CC4)cc3)n[nH]c2c1`, the inhibition was -1% in assay [14]; 0% in assay [15]; -1.7% in [16]; -7% in [17]; 1.3% in [18]; -0.7% in assay [19].

In the case of `Cc1[nH]nc(C2CC2)c1-c1ccc2c(-c3ccc(N4CCN(C)CC4)nc3)n[nH]c2c1`, the inhibition was -2.3% in assay [20]; -0.7% in assay [21]; 2.3% in assay [22]; -1.7% in assay [23]; 2.3% in [24]; 4.7% in assay [25]. Also, in [26], the inhibition was found to be 1.7%.
